# Experimental data taken from patent US20230218639A1, “USE OF OXYGENATED CHOLESTEROL SULFATES FOR TREATING NEUROLOGICAL CONDITIONS, NEURODEGENERATIVE DISEASES, AND ADDICTION” (Durect Corporation, priority 2020, published 2023).
# How the values were obtained:
# [1] = target: DNMT1 (Homo sapiens, UniProt P26358); experiment: DNMT1 activity assay (Poly(dI-dC) substrate, ^3H-SAM); format: biochemical; settings: for EC50: read-out: EC50, activation of DNMT-1
# Description: (§1) For the DNMT1 activity assay, the substrate solution, 0.001 mg/ml Poly(dI-dC):Poly(dI-dC) in 50 mM Tris-HCl, pH 7.5, 50 mM NaCl, 5 mM EDTA, 5 mM DTT, 1 mM PMSF, 5% glycerol, 0.01% Brij35, 1% DMSO was used. For the DNMT3a/3b activity assay, 0.0075 mg/ml Lambda DNA in 50 mM Tris-HCl, pH 7.5, 50 mM NaCl, 5 mM EDTA, 5 mM DTT, 1 mM PMSF, 5% glycerol, 1% DMSO, was used. The indicated DNMT1, DNMT3a, or DNMT3b was added to the appropriate substrate solution and gently mixed. […] The mixtures were first incubated for 15 min, then ^3H-SAM was added to the reaction mixture to initiate the reaction, and the mixture was incubated for 60 min at 30° C. Following incubation, the reaction mixture was finally transferred to filter-paper for detection of radioactivity counts.
# [2] = Metabolite profiling of plasma and feces, oral dose; format: in vivo, rats
# Description: Radiolabeled components in plasma and feces extracts were profiled and identified using radio-high performance liquid chromatography (HPLC) and high performance liquid chromatography/mass spectrometry (HPLC/MS) methods.
# Plasma pools were prepared for Group 1 (75 mg/kg, [^14C]-25HC3S) samples collected at 2, 4, and 6 hours post-dose. […] One metabolite M29 was identified as 25-hydroxycholesterol with 37% ROI and a concentration of 1233 ng-equiv./g.
# Feces pools were prepared for Group 2 (75 mg/kg, [^14C]-25HC3S) samples collected from 0 to 24, 24 to 48, 48 to 72, 72 to 96, 96 to 120, 120 to 144, and 144 to 168 hours post-dose. A total of eleven metabolites were identified. None of the metabolites were present at ≥5% of dose. Metabolites present at 2-5% of dose were M1 (4.5% of total dose and 1%-69% ROI), M3 (4.6% of total dose and 1%-44% ROI), M4 (2.0% of total dose and 0%-10% ROI), M8 (3.1% of total dose and 1%-46% ROI), […], and M30 (3.3% of total dose and 0%-5% ROI).
# [3] = Metabolite profiling of plasma, urine, feces, intravenous dose; format: in vivo, Sprague Dawley rats; settings: intravenous 10 mg/kg
# Description: Nine male Sprague Dawley rats (Group 1) were designated for the pharmacokinetic phase, 3 male Sprague Dawley rats (Group 2) for the excretion mass balance phase, and 7 male Sprague Dawley rats (Group 3) and 9 male Long Evans rats (Group 4) for the tissue distribution phase. All animals received a single intravenous dose of [^14C]-25HC3S at 10 mg/kg and a target radioactivity of 225 μCi/kg. Blood samples were collected from all Group 1 animals at approximately 0.083, 0.25, 0.5, 1, 2, 4, 8, 12, 24, 48, and 72 hours post-dose. Urine and feces were collected from all Group 2 animals periodically through 168 hours post-dose. […] Following blood collection, animals were euthanized by CO2 inhalation and carcasses frozen in a dry ice/hexane bath for processing by quantitative whole body autoradiography. Whole blood, plasma, urine, feces, cage rinse, and cage wash were analyzed for total radioactivity by liquid scintillation counting.
# [4] = target: DNMT3b (Homo sapiens, UniProt Q9UBC3); experiment: DNMT3b activity assay (Lambda DNA substrate, ^3H-SAM); format: biochemical
# Description: as §1
# [5] = target: DNMT3a (Homo sapiens, UniProt Q9Y6K1); experiment: DNMT3a activity assay (Lambda DNA substrate, ^3H-SAM); format: biochemical
# Description: as §1
# [6] = test system: DNMT1/3a/3b; experiment: Enzyme kinetic study, DNMT1/3a/3b activities overall; format: biochemical; settings: for effect on enzymatic activities: controls
# Description: as §1
# [7] = Sprague Dawley, rat, in vivo, po, 75 mg/kg
# Chain of DNMT1 (P26358 whole entry): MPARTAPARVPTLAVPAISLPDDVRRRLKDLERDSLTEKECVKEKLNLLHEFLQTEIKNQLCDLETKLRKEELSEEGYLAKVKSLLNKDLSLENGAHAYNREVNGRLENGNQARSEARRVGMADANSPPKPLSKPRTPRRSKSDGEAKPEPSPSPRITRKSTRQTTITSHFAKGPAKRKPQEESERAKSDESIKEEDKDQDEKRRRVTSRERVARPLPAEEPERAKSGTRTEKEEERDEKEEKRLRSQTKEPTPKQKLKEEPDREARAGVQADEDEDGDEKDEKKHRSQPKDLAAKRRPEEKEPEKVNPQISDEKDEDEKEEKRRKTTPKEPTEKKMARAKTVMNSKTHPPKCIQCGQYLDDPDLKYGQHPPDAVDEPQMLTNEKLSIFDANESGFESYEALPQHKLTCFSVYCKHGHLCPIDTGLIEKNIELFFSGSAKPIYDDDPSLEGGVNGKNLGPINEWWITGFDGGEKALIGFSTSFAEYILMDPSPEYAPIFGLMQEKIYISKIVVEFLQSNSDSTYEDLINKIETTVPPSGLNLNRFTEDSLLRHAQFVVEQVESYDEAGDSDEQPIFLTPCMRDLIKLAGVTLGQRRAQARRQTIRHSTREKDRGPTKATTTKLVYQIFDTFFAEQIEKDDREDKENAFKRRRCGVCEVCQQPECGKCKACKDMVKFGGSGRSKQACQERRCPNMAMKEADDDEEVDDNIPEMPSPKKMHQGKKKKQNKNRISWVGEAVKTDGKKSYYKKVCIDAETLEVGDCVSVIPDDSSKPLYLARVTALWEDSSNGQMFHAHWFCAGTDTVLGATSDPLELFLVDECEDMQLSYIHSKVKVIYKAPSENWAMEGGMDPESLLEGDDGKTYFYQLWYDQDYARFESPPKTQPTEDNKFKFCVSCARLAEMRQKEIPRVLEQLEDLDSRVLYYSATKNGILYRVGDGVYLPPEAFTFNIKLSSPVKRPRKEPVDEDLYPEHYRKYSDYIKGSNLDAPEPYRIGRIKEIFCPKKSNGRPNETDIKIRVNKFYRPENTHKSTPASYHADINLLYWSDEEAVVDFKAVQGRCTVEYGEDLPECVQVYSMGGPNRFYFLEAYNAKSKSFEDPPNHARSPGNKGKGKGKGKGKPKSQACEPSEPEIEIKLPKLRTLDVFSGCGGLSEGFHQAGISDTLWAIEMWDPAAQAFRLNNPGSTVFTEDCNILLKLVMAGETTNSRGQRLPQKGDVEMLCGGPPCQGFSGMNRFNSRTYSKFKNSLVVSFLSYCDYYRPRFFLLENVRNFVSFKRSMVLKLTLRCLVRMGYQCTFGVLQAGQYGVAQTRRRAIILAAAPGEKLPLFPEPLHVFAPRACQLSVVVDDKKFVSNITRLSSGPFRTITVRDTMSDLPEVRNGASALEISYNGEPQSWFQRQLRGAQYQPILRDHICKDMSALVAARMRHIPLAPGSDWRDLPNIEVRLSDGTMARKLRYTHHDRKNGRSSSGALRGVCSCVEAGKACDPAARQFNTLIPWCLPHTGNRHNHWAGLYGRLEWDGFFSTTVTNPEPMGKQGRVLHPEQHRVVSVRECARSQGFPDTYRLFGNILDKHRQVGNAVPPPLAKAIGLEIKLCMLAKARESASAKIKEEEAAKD
# Chain of DNMT3a (Q9Y6K1 whole entry, looked up): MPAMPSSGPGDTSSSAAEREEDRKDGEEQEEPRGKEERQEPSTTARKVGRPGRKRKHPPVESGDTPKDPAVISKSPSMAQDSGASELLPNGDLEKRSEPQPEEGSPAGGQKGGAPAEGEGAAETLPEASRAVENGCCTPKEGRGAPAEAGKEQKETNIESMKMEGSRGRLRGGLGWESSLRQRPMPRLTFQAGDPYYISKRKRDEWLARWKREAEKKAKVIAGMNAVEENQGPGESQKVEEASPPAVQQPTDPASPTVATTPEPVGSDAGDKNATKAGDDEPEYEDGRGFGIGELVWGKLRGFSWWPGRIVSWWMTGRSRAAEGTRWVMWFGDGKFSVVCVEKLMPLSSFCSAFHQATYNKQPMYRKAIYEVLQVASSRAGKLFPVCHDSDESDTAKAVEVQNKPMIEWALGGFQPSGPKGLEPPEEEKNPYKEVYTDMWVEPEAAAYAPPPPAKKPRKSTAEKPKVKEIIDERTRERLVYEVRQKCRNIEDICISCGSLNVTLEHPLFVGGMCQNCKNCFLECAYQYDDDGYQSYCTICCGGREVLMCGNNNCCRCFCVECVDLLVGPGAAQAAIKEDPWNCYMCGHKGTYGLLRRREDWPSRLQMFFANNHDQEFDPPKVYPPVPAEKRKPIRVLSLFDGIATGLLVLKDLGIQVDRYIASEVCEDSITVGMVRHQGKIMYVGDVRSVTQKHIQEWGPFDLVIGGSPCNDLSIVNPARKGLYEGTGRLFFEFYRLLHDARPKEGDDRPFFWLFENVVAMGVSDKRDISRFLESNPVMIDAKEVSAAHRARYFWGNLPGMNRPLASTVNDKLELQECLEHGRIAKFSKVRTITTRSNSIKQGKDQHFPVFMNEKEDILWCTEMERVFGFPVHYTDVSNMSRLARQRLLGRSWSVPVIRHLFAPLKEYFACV
compound,measurement,setting,value
"C[C@H](CCCC(C)(C)O)[C@H]1CC[C@H]2[C@@H]3CC=C4C[C@@H](O)CC[C@]4(C)[C@H]3CC[C@]12C [25HC, 25-Hydroxycholesterol, reference compound]",activation of DNMT-1 activity,[1],8 fold
same,EC50,[1],3.5 µM
same,% of total dose in feces,[2]; [7],1.9 % of total dose
same,ROI in feces,[2]; [7],0-2%
same,relative observed intensity (ROI) in plasma,"[2]; Sprague Dawley, rat, in vivo, po, 75 mg/kg, 2 h",37%
same,"detection in plasma, urine, or feces samples",[3],Neither desmosterol sulfate nor 25-hydroxycholesterol was detected
"CC(CO)CCC[C@@H](C)[C@H]1CC[C@H]2[C@@H]3CC=C4C[C@@H](OS(=O)(=O)O)CC[C@]4(C)[C@H]3CC[C@]12C (stereo partly drawn) [27HC3S, 5-cholesten-3β, 27-diol 3-sulfate]",IC50,[1],3.58 µM
same,IC50,[4],2.68 µM
same,IC50,[5],8.88 µM
"C[C@@H](CO)CCC[C@@H](C)[C@H]1CC[C@H]2[C@@H]3CC=C4C[C@@H](O)CC[C@]4(C)[C@H]3CC[C@]12C [27HC, 27-Hydroxycholesterol]",EC50,[1],33 µM
same,effect on other enzymes,[6]; enzymes other than DNMT-1,no effect
"Nc1ncnc2c1ncn2[C@@H]1O[C@H](CSCC[C@H](N)C(=O)O)[C@@H](O)[C@H]1O [SAH, S-adenosyl homocysteine]",inhibition at 1 µM,[1]; read-out: inhibition of DNMT1 activity,95%
"CC(C)CCC[C@@H](C)[C@H]1CC[C@H]2[C@@H]3CC=C4C[C@@H](OS(=O)(=O)O)CC[C@]4(C)[C@H]3CC[C@]12C [Xol3S, 5-cholesten-3β-ol, 3-sulfate, reference compound]",effect on enzymatic activities,[6],did not significantly affect
same,IC50,[5],82 µM
"CC(C)CCC[C@@H](C)[C@H]1CC[C@H]2[C@@H]3CC=C4C[C@@H](O)CC[C@]4(C)[C@H]3CC[C@]12C [Xol, Cholesterol]",effect on enzymatic activities,[6],did not significantly affect
desmosterol sulfate,presence in plasma or feces samples,[2]; oral 75 mg/kg,not found
same,"detection in plasma, urine, or feces samples",[3],Neither desmosterol sulfate nor 25-hydroxycholesterol was detected
